Test results: ChEMBL document CHEMBL1201862, “PubChem BioAssay data set” (2004)
Activity calls are given as the source filed them.

Key:
[1] = molecular target: Peroxisome proliferator-activated receptor gamma (Homo sapiens, UniProt P37231); experiment: competitive ligand displacement at PPARg – biochemical, TR-FRET, LanthaScreen, PPARg partial agonist project, dose response (AID 504446)
[2] = molecular target: G-protein coupled receptor 35 (Homo sapiens, UniProt Q9HC97); experiment: inhibition of zaprinast-stimulated GPR35 beta-arrestin translocation – imaging, U2OS, beta-arrestin-GFP, zaprinast agonist, primary screen (AID 2058); type: functional;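 note: antagonist potency meaning inhibition of agonist-induced arrestin redistribution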
[3] = Counterscreen for IDE inhibitors: Luminescence-based cell-based high throughput dose response assay to identify compounds that are cytotoxic to HEK cells. [Related pubchem assays: 434962 (Primary screen (IDE inhibitors in singlicate)), 449730 (Counterscreen (Cytotoxicity in triplicate)), 435028 (Confirmation (IDE inhibitors in triplicate)) …; type: functional; conditions: HEK293
Insulin-degrading enzyme = molecular target: T1, Insulin-degrading enzyme (Homo sapiens, UniProt P14735); experiment: Dose Response: Fluorescence polarization-based cell-based high throughput dose response assay for inhibitors of insulin-degrading enzyme (IDE). [Related pubchem assays: 434962 (Primary screen (IDE inhibitors in singlicate)), 449730 (Counterscreen (Cytotoxicity in triplicate)), 435028 (Confirmation (IDE inhibitors in triplicate)), 434984 (Summary …; type: functional
T1 sequence (P14735 whole entry): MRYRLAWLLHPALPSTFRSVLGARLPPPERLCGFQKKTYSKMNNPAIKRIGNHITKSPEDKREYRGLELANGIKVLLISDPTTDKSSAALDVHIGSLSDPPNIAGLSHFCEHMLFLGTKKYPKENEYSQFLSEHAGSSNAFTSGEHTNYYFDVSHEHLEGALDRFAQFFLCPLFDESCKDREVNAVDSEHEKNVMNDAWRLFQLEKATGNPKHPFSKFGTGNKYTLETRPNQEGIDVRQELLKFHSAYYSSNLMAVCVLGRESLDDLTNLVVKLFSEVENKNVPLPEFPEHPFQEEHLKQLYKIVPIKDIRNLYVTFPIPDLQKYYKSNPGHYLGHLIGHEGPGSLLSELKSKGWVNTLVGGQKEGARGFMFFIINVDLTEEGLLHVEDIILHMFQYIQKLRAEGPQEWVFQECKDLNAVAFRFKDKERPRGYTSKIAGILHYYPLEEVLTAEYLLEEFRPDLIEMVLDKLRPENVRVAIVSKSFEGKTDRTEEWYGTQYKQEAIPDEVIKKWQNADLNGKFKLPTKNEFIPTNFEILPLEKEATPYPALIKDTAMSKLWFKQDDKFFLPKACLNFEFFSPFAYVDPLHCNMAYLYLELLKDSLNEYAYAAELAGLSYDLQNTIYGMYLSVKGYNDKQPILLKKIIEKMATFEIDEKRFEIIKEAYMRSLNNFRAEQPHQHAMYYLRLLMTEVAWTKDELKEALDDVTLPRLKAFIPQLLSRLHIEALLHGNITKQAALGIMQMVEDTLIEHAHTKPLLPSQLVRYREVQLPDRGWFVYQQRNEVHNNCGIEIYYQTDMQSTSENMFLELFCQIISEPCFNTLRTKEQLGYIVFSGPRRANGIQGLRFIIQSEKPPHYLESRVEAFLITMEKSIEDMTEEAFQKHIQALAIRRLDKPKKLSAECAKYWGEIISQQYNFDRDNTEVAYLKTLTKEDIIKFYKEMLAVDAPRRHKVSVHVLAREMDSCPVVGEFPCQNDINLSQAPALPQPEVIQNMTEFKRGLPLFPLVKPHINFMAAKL

Cytochrome P450 2D6 = Cytochrome P450 2D6 (Homo sapiens, UniProt P10635); experiment: qHTS Assay for Inhibitors and Substrates of Cytochrome P450 2D6. [Related pubchem assays: 410 ]; type: ADME; conditions: read-out: Potency
[4] = Luminescence Cell-Based Dose Confirmation HTS to Identify Activators of 5'UTR Stem-Loop Driven Alpha-Synuclein mRNA Translation in H4 Neuroglioblastoma Cells. [Related pubchem assays: 1829 (Project Summary), 1814 (Primary HTS)]; type: functional
[5] = molecular target: Lysosomal acid glucosylceramidase (Homo sapiens, UniProt P04062); experiment: Dose response cell-based high throughput screening assay to identify enhancers of beta-glucosidase activity. [Related pubchem assays: 784 ]; type: functional
[6] = Luminescence Cell-Based Dose Response HTS to Identify Activators of Luciferase Translation or Activity in H4 […] Cells. [Related pubchem assays: 1829 (Project Summary), 1814 (Primary HTS)]; type: functional
H4 = experiment: Luminescence Cell-Based Dose Response HTS to Identify Activators of 5'UTR Stem-Loop Driven Prion Protein mRNA Translation in H4 Neuroglioblastoma Cells. [Related pubchem assays: 1829 (Project Summary), 1814 (Primary HTS)]; type: functional; conditions: Homo sapiens
[7] = molecular target: T2, Neuropeptides B/W receptor type 1 (Homo sapiens, UniProt P48145); experiment: Fluorescence-based dose response cell-based high throughput screening assay to identify antagonists of the G-protein coupled receptor 7 (GPR7). [Related pubchem assays: 1952 (Screening assay (GPR7 antagonists).), 1880 (Summary AID.)]; type: functional
T2 sequence (P48145 whole entry): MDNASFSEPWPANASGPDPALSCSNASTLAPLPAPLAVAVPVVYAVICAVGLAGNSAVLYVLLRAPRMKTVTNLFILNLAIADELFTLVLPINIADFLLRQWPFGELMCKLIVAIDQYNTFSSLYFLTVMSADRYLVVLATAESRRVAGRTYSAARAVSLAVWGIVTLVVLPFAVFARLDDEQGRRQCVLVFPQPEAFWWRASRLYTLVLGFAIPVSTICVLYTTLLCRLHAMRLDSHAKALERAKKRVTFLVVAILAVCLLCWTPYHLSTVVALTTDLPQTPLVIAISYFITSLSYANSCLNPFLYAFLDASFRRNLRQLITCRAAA

[8] = molecular target: T3, Melanin-concentrating hormone receptor 1 (Homo sapiens, UniProt Q99705); experiment: Fluorescence-based counterscreen for antagonists of the G-protein coupled receptor 7 (GPR7): cell-based high throughput dose response assay to identify antagonists of the melanin-concentrating hormone receptor 1 (MCHR1).; type: functional
[9] = molecular target: T3, Melanin-concentrating hormone receptor 1; experiment: Late-stage fluorescence-based counterscreen for antagonists of the G-protein coupled receptor 7 (GPR7): cell-based dose response assay to identify antagonists of the melanin-concentrating hormone receptor 1 (MCHR1). [Related pubchem assays (depositor defined):AID1861, AID1880, AID1952, AID2148, AID2251, AID2257, AID485339]; type: functional

T3 sequence (Q99705 whole entry): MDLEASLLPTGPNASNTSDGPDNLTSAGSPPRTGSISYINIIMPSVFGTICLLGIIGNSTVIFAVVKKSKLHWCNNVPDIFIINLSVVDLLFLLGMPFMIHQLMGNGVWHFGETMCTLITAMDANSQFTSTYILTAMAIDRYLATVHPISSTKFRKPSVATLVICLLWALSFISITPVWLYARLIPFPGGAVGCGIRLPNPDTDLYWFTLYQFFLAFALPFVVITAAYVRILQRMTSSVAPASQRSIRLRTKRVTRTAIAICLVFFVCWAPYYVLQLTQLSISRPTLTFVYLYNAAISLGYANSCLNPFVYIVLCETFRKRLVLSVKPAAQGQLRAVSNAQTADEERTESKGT
Chain of Peroxisome proliferator-activated receptor gamma (P37231 whole entry): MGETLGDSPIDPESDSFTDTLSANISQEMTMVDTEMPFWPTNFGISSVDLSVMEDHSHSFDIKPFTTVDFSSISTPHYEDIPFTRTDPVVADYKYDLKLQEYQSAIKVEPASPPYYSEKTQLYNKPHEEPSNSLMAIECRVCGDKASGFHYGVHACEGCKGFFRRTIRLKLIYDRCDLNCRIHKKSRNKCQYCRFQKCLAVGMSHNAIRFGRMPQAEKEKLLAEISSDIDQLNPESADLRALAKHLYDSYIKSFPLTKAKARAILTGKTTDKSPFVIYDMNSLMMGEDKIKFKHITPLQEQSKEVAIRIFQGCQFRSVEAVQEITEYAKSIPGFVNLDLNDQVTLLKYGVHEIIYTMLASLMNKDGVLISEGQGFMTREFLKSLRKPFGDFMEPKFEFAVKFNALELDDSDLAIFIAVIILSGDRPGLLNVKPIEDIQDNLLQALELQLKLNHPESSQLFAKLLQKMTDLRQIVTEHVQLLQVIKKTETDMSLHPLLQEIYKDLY
Chain of Cytochrome P450 2D6 (P10635 whole entry): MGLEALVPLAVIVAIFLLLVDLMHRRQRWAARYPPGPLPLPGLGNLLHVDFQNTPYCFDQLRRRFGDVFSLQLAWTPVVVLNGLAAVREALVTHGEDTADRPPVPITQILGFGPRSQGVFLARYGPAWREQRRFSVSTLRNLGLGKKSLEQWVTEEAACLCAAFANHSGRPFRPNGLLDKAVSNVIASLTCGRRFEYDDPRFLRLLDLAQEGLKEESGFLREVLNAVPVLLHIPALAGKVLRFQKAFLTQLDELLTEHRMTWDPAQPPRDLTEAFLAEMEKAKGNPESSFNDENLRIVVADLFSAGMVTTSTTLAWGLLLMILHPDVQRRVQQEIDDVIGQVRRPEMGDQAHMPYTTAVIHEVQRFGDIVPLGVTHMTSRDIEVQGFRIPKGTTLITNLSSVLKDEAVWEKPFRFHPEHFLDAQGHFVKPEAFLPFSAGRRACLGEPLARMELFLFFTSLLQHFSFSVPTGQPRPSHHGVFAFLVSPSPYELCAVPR
Chain of G-protein coupled receptor 35 (Q9HC97 whole entry): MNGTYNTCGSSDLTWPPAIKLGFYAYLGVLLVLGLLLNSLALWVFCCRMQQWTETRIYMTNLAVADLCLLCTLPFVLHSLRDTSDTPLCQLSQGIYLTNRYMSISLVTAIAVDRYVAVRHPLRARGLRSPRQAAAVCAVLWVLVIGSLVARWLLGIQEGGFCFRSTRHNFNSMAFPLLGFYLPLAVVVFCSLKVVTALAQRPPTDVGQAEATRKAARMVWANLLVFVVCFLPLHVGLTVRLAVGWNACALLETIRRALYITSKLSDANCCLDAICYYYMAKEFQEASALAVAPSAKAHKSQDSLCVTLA
Chain of Lysosomal acid glucosylceramidase (P04062 whole entry): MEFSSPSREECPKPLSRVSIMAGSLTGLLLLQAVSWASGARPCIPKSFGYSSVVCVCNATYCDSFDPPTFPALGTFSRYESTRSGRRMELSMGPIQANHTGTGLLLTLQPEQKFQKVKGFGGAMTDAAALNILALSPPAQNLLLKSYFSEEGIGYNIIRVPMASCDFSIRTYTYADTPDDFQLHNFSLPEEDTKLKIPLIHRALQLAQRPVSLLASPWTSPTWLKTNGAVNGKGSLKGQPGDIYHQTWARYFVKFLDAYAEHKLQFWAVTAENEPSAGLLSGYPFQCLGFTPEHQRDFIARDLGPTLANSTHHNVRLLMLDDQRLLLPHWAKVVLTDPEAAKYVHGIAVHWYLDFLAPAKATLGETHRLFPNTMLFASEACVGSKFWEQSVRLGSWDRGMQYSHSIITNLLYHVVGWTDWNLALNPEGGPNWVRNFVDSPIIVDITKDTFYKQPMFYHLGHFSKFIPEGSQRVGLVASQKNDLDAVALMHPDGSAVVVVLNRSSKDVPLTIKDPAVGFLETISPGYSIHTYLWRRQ

O=C(O)CCN1C(=O)/C(=C/c2ccc(C(F)(F)F)cc2C(F)(F)F)SC1=S
IC50 [1]: 2 µM (active)

CCCCCOC(=O)c1ccc(NC(=O)c2cccc(NC(=O)c3ccccc3C(=O)O)c2)cc1
IC50 [2]: 1 µM (active)

CN(C)c1ccc(/C=C2\SC(N3CCCCC3)=NC2=O)cc1
IC50 [3]: 23 µM (not active) | IC50 (Insulin-degrading enzyme): 17.9 µM (not active)

COc1ccc2c(c1O)-c1c(OC)c(OC)cc3c1[C@@H](C2)N(C)CC3
AC50 (Cytochrome P450 2D6): 15.8 µM (inconclusive)

COC(=O)c1sc(NC(=O)c2csc3c2CCCC3)nc1C
EC50 [4]: 0.155 µM (active) | EC50 [5]: > 50 µM (not active) | EC50 [6]: 0.575 µM (active) | EC50 (H4): 1.8 µM (active)

COc1ccc(Oc2c(Cl)cnn(-c3ccc(C)cc3)c2=O)cc1
IC50 [7]: 2.94 µM (active) | IC50 [8]: 23.6 µM (not active) | IC50 [9]: 17 µM (inactive)
